This note sets out measurements from US12162864B2, “Condensed-cyclic compound” (Takeda Pharmaceutical Company Limited, priority 2018, dated 2024).

The term EC50 denotes the concentration needed to bring the measured effect to its halfway point.

The assay has as its target T1, human M1 receptor (Homo sapiens, UniProt P11229).
T1 construct: expressed in transfected cells; host or cells: CHO-K1
T1 sequence (P11229 1-460): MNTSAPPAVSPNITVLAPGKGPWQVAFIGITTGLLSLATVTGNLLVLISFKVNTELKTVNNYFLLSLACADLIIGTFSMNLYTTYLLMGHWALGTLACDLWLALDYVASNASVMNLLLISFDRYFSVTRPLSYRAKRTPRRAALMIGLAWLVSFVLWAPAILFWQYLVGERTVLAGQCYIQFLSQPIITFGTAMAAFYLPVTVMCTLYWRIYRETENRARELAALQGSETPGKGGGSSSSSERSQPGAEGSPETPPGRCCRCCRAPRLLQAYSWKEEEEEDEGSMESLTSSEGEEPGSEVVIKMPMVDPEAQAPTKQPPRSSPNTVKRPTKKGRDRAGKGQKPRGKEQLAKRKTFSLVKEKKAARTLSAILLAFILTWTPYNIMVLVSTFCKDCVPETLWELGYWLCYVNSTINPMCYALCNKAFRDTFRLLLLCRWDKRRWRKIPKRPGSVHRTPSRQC
Description: Measurement of M1 receptor positive allosteric modulator (M1PAM) activity. To be noted: PAM activity in presence of acetylcholine at EC20 concentration; CHO-K1 cells stably expressing human M1 receptor; IP1 time-resolved fluorescence. It counts as cell-based. As for the experimental part: Measurement of M1 Receptor Positive Allosteric Modulator (M1PAM) Activity
The activity of a test compound in the presence of acetylcholine at an EC20 concentration affording about 20% action of the maximum activity was measured as PAM activity. The method therefor is as follows. To a 384-well white plate (Greiner™) was added 4 μL of the test compound diluted with IP1 Stimulation buffer (CisBio™) containing 0.1% fatty acid-free BSA containing 80 nM acetylcholine. Freeze stock of CHO-K1 cells stably expressing human M1 receptor (hCHRMl) was prepared with IP1 Stimulation buffer (CisBio™) containing 0.1% fatty acid-free BSA, 4 μL thereof was added (10,000 cells/well) and the mixture was cultured in a 5% CO2 incubator at 37° C. for 1 hr. 4 μL of a solution (CisBio™) containing IP1-d2 and Anti-IP1-cryptate Tb conjugate was added the mixture was incubated at room temperature for 1 hr, and the time-resolved fluorescence signal was measured on an Envision plate reader (Perkin Elmer™). The activity (%) of the test compound was calculated by defining the value when acetylcholine was added at the final concentration of 20 μM as 100% and the value when DMSO was added instead of the test compound under acetylcholine-free conditions as 0%, and the EC50 value was calculated as a value of 50% of the concentration dependence curve of the test compound.
On to `Cn1cc(-c2ccc(Cc3cc(C(=O)N[C@H]4CCOC[C@@H]4O)c(F)c4c3OCC4)cc2)nn1` [Example 1, 1,5-anhydro-2,3-dideoxy-3-(((4-fluoro-7-(4-(1-methyl-1H-1,2,3-triazol-4-yl)benzyl)-2,3-dihydro-1-benzofuran-5-yl)carbonyl)amino)-L-threo-pentitol], for which the 50% effective concentration (EC50) came out at 3.1 nM. As for `Cn1cc(-c2ccc(Cc3cc(C(=O)N[C@H]4CCOC[C@@H]4O)c(F)c4c3OCC4)cc2)cn1` [Example 2, 1,5-anhydro-2,3-dideoxy-3-(((4-fluoro-7-(4-(1-methyl-1H-pyrazol-4-yl)benzyl)-2,3-dihydro-1-benzofuran-5-yl)carbonyl)amino)-L-threo-pentitol], the figure is 4.9 nM; as for `O=C(N[C@H]1CCOC[C@@H]1O)c1cc(Cc2ccc(-n3cccn3)cc2)c2c(c1F)CCO2` [Example 9, 1,5-anhydro-2,3-dideoxy-3-(((4-fluoro-7-(4-(1H-pyrazol-1-yl)benzyl)-2,3-dihydro-1-benzofuran-5-yl)carbonyl)amino)-L-threo-pentitol], 7.6 nM; as for `O=C(N[C@H]1CCCC[C@@H]1O)c1cc(Cc2ccc(-n3cccn3)cc2)c2c(c1F)CCO2` [Example 10, 4-fluoro-N-((1S,2S)-2-hydroxycyclohexyl)-7-(4-(1H-pyrazol-1-yl)benzyl)-2,3-dihydro-1-benzofuran-5-carboxamide], 17 nM. The figure for `O=C(N[C@H]1COCC[C@@H]1O)c1cc(Cc2ccc(-n3cccn3)cc2)c2c(c1F)CCO2` [Example 11, 1,5-anhydro-2,4-dideoxy-2-(((4-fluoro-7-(4-(1H-pyrazol-1-yl)benzyl)-2,3-dihydro-1-benzofuran-5-yl)carbonyl)amino)-L-threo-pentitol] is 96 nM; for `CNC(=O)c1ccc(Cc2cc(C(=O)N[C@H]3CCOC[C@@H]3O)c(F)c3c2OCC3)cc1F` [Example 12, 1,5-anhydro-2,3-dideoxy-3-(((4-fluoro-7-(3-fluoro-4-(methylcarbamoyl)benzyl)-2,3-dihydro-1-benzofuran-5-yl)carbonyl)amino)-L-threo-pentitol] it is 11 nM.

As to `O=C(NC[C@@H]1CCCO1)c1ccc(Cc2cc(C(=O)N[C@H]3CCOC[C@@H]3O)c(F)c3c2OCC3)cc1F` [Example 15, 1,5-anhydro-2,3-dideoxy-3-(((4-fluoro-7-(3-fluoro-4-(((2S)-tetrahydrofuran-2-ylmethyl)carbamoyl)benzyl)-2,3-dihydro-1-benzofuran-5-yl)carbonyl)amino)-L-threo-pentitol], the concentration giving a half-maximal response (EC50) was 4.9 nM.

Consider `COc1c(C(=O)N[C@H]2CCOC[C@@H]2O)cc(Cc2ccc(-c3cn(C)nn3)cc2)c2c1CCO2` [Example 18, 1,5-anhydro-2,3-dideoxy-3-(((4-methoxy-7-(4-(1-methyl-1H-1,2,3-triazol-4-yl)benzyl)-2,3-dihydro-1-benzofuran-5-yl)carbonyl)amino)-L-threo-pentitol], for which the EC50 came out at 6 nM. As for `Cn1cc(-c2ccc(Cc3cc(C(=O)N[C@H]4CCOC[C@@H]4O)c(O)c4c3OCC4)cc2)nn1` [Example 20, 1,5-anhydro-2,3-dideoxy-3-(((4-hydroxy-7-(4-(1-methyl-1H-1,2,3-triazol-4-yl)benzyl)-2,3-dihydro-1-benzofuran-5-yl)carbonyl)amino)-L-threo-pentitol], the figure is 43 nM. As for `COCCNC(=O)c1ccc(Cc2cc(C(=O)N[C@H]3CCOC[C@@H]3O)c(OC)c3c2OCC3)cc1F` [Example 32, 1,5-anhydro-2,3-dideoxy-3-(((7-(3-fluoro-4-((2-methoxyethyl)carbamoyl)benzyl)-4-methoxy-2,3-dihydro-1-benzofuran-5-yl)carbonyl)amino)-L-threo-pentitol], the figure is 24 nM; as for `COc1c(C(=O)N[C@H]2CCOC[C@@H]2O)cc(Cc2ccc(C(=O)NC[C@@H]3CCCO3)c(F)c2)c2c1CCO2` [Example 33, 1,5-anhydro-2,3-dideoxy-3-(((7-(3-fluoro-4-(((2S)-tetrahydrofuran-2-ylmethyl)carbamoyl)benzyl)-4-methoxy-2,3-dihydro-1-benzofuran-5-yl)carbonyl)amino)-L-threo-pentitol], 11 nM. The figure for `COc1c(C(=O)N[C@H]2CCOC[C@@H]2O)cc(Cc2ccc(C(=O)NC[C@H]3CCCO3)c(F)c2)c2c1CCO2` [Example 43, 1,5-anhydro-2,3-dideoxy-3-(((7-(3-fluoro-4-(((2R)-tetrahydrofuran-2-ylmethyl)carbamoyl)benzyl)-4-methoxy-2,3-dihydro-1-benzofuran-5-yl)carbonyl)amino)-L-threo-pentitol] is 96 nM. For `COc1c(C(=O)N[C@H]2CCOC[C@@H]2O)cc(Cc2ccc(-c3cn(C)nn3)cc2)c2c1CCC2` [Example 53, 1,5-anhydro-2,3-dideoxy-3-(((4-methoxy-7-(4-(1-methyl-1H-1,2,3-triazol-4-yl)benzyl)-2,3-dihydro-1H-inden-5-yl)carbonyl)amino)-L-threo-pentitol], the half-maximal effective concentration (EC50) came out at 3.2 nM. The figure for `COc1c(C(=O)N[C@H]2CCOC[C@@H]2O)cc(Cc2ccc(-c3cnn(C)c3)nc2)c2c1CCC2` [Example 55, 1,5-anhydro-2,3-dideoxy-3-(((4-methoxy-7-((6-(1-methyl-1H-pyrazol-4-yl)pyridin-3-yl)methyl)-2,3-dihydro-1H-inden-5-yl)carbonyl)amino)-L-threo-pentitol] is 5.5 nM; for `CNC(=O)c1ccc(Cc2cc(C(=O)N[C@H]3CCOC[C@@H]3O)c(OC)c3c2CCC3)cc1F` [Example 57, 1,5-anhydro-2,3-dideoxy-3-(((7-(3-fluoro-4-(methylcarbamoyl)benzyl)-4-methoxy-2,3-dihydro-1H-inden-5-yl)carbonyl)amino)-L-threo-pentitol] it is 8.9 nM; for `COCCNC(=O)c1ccc(Cc2cc(C(=O)N[C@H]3CCOC[C@@H]3O)c(OC)c3c2CCC3)cc1F` [Example 58, 1,5-anhydro-2,3-dideoxy-3-(((7-(3-fluoro-4-((2-methoxyethyl)carbamoyl)benzyl)-4-methoxy-2,3-dihydro-1H-inden-5-yl)carbonyl)amino)-L-threo-pentitol] it is 9.4 nM. As for `COc1c(C(=O)N[C@H]2CCOC[C@@H]2O)cc(Cc2ccc(C(=O)NC[C@@H]3CCCO3)c(F)c2)c2c1CCC2` [Example 59, 1,5-anhydro-2,3-dideoxy-3-(((7-(3-fluoro-4-(((2S)-tetrahydrofuran-2-ylmethyl)carbamoyl)benzyl)-4-methoxy-2,3-dihydro-1H-inden-5-yl)carbonyl)amino)-L-threo-pentitol], the figure is 3.9 nM; as for `COc1c(C(=O)N[C@H]2CCOC[C@@H]2O)cc(Cc2ccc(C(=O)NCCCS(C)(=O)=O)c(F)c2)c2c1CCC2` [Example 66, 1,5-anhydro-2,3-dideoxy-3-(((7-(3-fluoro-4-((3-(methylsulfonyl)propyl)carbamoyl)benzyl)-4-methoxy-2,3-dihydro-1H-inden-5-yl)carbonyl)amino)-L-threo-pentitol], 12 nM. Regarding `COc1c(C(=O)N[C@H]2CCOC[C@@H]2O)cc(Cc2ccc(C(=O)NC[C@H]3CCCO3)c(F)c2)c2c1CCC2` [Example 70, 1,5-anhydro-2,3-dideoxy-3-(((7-(3-fluoro-4-(((2R)-tetrahydrofuran-2-ylmethyl)carbamoyl)benzyl)-4-methoxy-2,3-dihydro-1H-inden-5-yl)carbonyl)amino)-L-threo-pentitol], the 50% effective concentration (EC50) is 32 nM.
